One assay has as its target T1, Zα domain of ADAR1 p150 (Homo sapiens, UniProt P55265).
T1 construct: 10 μg/ml of Zα domain of ADAR1 was immobilized on CM5 chip using anti-HIS antibody; made in house
T1 sequence (P55265 133-199 limits assumed): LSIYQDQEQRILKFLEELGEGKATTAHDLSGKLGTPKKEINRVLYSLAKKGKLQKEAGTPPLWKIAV
Nature of the assay: SPR binding assay. The conditions noted are these: 6× his tag Zα domain immobilized on CM5 chip, analyte 0-25 μM. The method, then:
6× his tag Za domain of ADAR1 p150 was purified using bacterial purification system. Protein was isolated from supernatant of cell lysate using Ni-NTA resin. For binding assay using SPR, 10 μg/ml of Zα domain of ADAR1 was immobilized on CM5 chip using anti-HIS antibody. Binding was quantified using the following condition below: • Analyte: 25, 12.5, 6.25, 3.125, 1.56, 0.78, 0 μM • Contact time—60 seconds, • Dissociation time—320 seconds • Flow rate—30 μL/minute Running buffer-PBSP+5% DMSO • After curve fitting, Kd values for synthesized compounds was quantified using the instrument software.
In general terms: SPR reads the build-up and loss of mass on a sensor chip optically.

The target of a further assay is T2, ADAR1 (Homo sapiens, UniProt P55265).
T2 construct: endogenous in cells; host or cells: p110 KO A549 dual cells
T2 sequence (P55265 1-1226): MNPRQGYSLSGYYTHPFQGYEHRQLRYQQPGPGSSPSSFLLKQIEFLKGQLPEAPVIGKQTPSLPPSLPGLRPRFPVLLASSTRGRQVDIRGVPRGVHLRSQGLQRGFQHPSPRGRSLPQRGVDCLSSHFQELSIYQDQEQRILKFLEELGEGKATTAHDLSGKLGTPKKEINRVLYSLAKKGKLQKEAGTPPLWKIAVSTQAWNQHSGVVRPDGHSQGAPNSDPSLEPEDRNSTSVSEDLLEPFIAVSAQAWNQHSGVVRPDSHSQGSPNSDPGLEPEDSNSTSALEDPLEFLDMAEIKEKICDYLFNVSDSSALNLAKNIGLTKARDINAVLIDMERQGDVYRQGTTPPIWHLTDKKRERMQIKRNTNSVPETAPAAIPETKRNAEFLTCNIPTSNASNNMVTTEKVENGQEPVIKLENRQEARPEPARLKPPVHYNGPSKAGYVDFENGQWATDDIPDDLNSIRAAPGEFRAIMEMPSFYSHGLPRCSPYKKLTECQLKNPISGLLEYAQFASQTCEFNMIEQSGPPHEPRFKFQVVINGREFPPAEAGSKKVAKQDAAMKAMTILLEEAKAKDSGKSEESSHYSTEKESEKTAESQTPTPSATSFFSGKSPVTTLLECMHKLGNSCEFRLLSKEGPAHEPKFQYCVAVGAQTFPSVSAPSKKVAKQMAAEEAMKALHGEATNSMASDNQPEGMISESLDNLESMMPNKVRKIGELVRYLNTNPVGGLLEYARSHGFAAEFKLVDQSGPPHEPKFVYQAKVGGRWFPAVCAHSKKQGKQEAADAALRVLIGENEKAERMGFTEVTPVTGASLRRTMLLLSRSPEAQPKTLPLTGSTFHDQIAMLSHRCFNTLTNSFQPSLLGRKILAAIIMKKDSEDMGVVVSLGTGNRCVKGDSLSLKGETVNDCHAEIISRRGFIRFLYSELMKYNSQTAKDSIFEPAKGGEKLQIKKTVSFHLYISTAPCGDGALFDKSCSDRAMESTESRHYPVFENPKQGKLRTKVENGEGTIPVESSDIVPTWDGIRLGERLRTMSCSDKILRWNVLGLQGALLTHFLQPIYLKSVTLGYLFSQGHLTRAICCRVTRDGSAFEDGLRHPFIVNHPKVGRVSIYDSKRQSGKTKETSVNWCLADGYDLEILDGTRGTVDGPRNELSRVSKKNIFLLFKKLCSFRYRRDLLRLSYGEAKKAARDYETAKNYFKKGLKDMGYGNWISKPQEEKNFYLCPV
Nature of the assay: ADAR1 Inhibition Assay (IFN fold-induction, Quanti-Luc luminescence, p110 KO A549 dual cells). In kind it is cell-based. The conditions noted are these: IFN fold-induction vs DMSO, 24 and 48 h. A digest of the protocol: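 p110 KO A549 dual cells (20,000/well) in supplemented DMEM, treated next day with compound at 1% final DMSO for 24 and 48 h at 37 °C, 5% CO2. Supernatant luminescence read with Quanti-Luc; IFN fold-induction = sample RLU/mean DMSO RLU, used for EC50.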

Molecules are shown by their SMILES.

Usually Kd stands for the free concentration of one partner at which half of the binding sites on the other are occupied at equilibrium, for simple one-to-one binding. Read a low Kd as higher affinity. By EC50 is commonly meant the concentration that produces a half-maximal response. `CCOC(=O)c1cc(-c2ccccc2)sc1NC(=O)CNC(=O)c1cccc(NS(C)(=O)=O)c1` [Compound 13]: the Kd on Zα domain of ADAR1 p150 is at most 1 µM. The EC50 on ADAR1 was over 100 µM.

On to `CCOC(=O)c1cc(-c2ccccc2)sc1NC(=O)COC(=O)c1cccc(NS(C)(=O)=O)c1` [Compound 66, Ethyl 2-(2-((3-(methylsulfonamido)benzoyl)oxy)acetamido)-5-phenylthiophene-3-carboxylate], for which, on Zα domain of ADAR1 p150, the Kd was at most 1 µM. In addition, the EC50 on ADAR1 is at most 25 µM.

Turning to `CCOC(=O)c1cc(-c2ccccc2)sc1NC(=O)COC(=O)c1cccc(C(F)(F)F)c1` [Compound 70], the Kd at Zα domain of ADAR1 p150 is over 25 µM. The molecule also returned an EC50 at ADAR1 of over 100 µM.

`CCOC(=O)c1cc(-c2ccccc2)sc1NC(=O)COC(=O)c1cccc(C#N)c1` [Compound 71] returned a Kd on Zα domain of ADAR1 p150 of at most 1 µM. For the same molecule, the EC50 at ADAR1 is over 100 µM.

For `CCOC(=O)c1cc(-c2ccccc2)sc1NC(=O)C1CCCN1C(=O)c1cccc(S(N)(=O)=O)c1` (centres unmarked) [Compound 72], the equilibrium dissociation constant (Kd) on Zα domain of ADAR1 p150 lay in the range of 1 to 10 µM. The molecule also came in with an EC50 on ADAR1 of at most 25 µM.

Turning to `CCOC(=O)c1cc(-c2ccccc2)sc1NC(=O)COC(=O)c1cccc(NC(C)=O)c1` [Compound 107], at Zα domain of ADAR1 p150, the Kd is at most 1 µM. Besides, the EC50 at ADAR1 is over 100 µM.

Regarding `CCOC(=O)c1cc(-c2ccccc2)sc1NC(=O)COC(=O)c1cccc(NS(C)(=O)=O)c1` [Compound 121], on Zα domain of ADAR1 p150, the Kd was at most 1 µM. This molecule also returned an EC50 on ADAR1 of over 100 µM.

`CS(=O)(=O)Nc1cccc(C(=O)OCC(=O)Nc2sc(-c3ccccc3)cc2C#N)c1` [Compound 127] displayed a Kd on Zα domain of ADAR1 p150 of at most 1 µM. Further, the EC50 on ADAR1 is over 100 µM.

As to `CCOC(=O)c1cc(-c2ccccc2)sc1NC(=O)COC(=O)c1cccc(N(C)S(C)(=O)=O)c1` [Compound 130], at Zα domain of ADAR1 p150, the Kd was at most 1 µM. Also, at ADAR1, the EC50 was over 100 µM.

On Zα domain of ADAR1 p150, `CCOC(=O)c1cc(-c2ccccc2)sc1NC(=O)COC(=O)c1cccc(NS(=O)(=O)C2CCCCC2)c1` [Compound 132] came in with a dissociation constant (Kd) of at most 1 µM. Besides, the EC50 on ADAR1 is over 100 µM.

At Zα domain of ADAR1 p150, `CCOC(=O)c1cc(-c2ccccc2)sc1NC(=O)COC(=O)c1ccc(F)c(NS(C)(=O)=O)c1` [Compound 137] returned a dissociation constant (Kd) of over 25 µM. The molecule also displayed an EC50 on ADAR1 of over 100 µM.

At Zα domain of ADAR1 p150, `CCOC(=O)c1nc(-c2ccccc2)sc1NC(=O)COC(=O)c1cccc(NS(C)(=O)=O)c1` [Compound 144] had a Kd of at most 1 µM. The same molecule gave an EC50 at ADAR1 of over 100 µM.

Take `CCOC(=O)c1cc(-c2ccccc2)sc1NC(=O)COC(=O)c1cccc(OS(=O)(=O)F)c1` [Compound 302]: the Kd on Zα domain of ADAR1 p150 was at most 1 µM.

`CCOC(=O)c1sc(-c2ccccc2)cc1NC(=O)CNC(=O)Cc1cccc(NS(C)(=O)=O)c1` [Compound 357]: on Zα domain of ADAR1 p150, the Kd was 1 to 10 µM.

For the molecule `CCOC(=O)c1cc(-c2ccccc2)sc1NC(=O)Cn1cc(C(=O)Nc2cccc(P(=O)(OCC)OCC)c2)nn1` [Compound 417], on ADAR1, the EC50 is over 100 µM.

With `CCOC(=O)c1sc(-c2ccccc2)cc1NC(=O)COC(=O)c1cccc(S(N)(=O)=O)c1` [Compound 423], at ADAR1, the EC50 is over 100 µM.

On to `CCOC(=O)c1cc(-c2ccccc2)sc1NC(=O)C1CCN(C(=O)c2cccc(S(N)(=O)=O)c2)C1` (centres unmarked) [Compound 425], for which the 50% effective concentration (EC50) on ADAR1 was over 100 µM.

The molecule `CCOC(=O)c1cc(-c2ccc(P(=O)(OCC)OCC)cc2)sc1NC(=O)COC(=O)c1cccc(S(N)(=O)=O)c1` [Compound 429] had an EC50 on ADAR1 of over 100 µM.

Molecule `CCOC(=O)c1cc(-c2ccccc2)sc1NC(=O)CNC(=O)CCc1cccc(P(=O)(O)O)c1` [Compound 432] registered a dissociation constant (Kd) on Zα domain of ADAR1 p150 of at most 1 µM.

Regarding `CCOC(=O)c1cc(-c2ccccc2)sc1NC(=O)CN(C)C(=O)c1cccc(P(=O)(O)O)c1` [Compound 435], the Kd at Zα domain of ADAR1 p150 is at most 1 µM.

On Zα domain of ADAR1 p150, `CCOC(=O)c1cc(-c2ccccc2)sc1NC(=O)CNC(=O)CCc1cccc(P(=O)(OCC)OCC)c1` [Compound 436] came in with a Kd of at most 1 µM.

For `CCNC(=O)c1cc(-c2ccccc2)sc1NC(=O)CNC(=O)c1ccc(P(=O)(OCC)OCC)cc1` [Compound 437], on Zα domain of ADAR1 p150, the Kd was at most 1 µM.

The molecule `CCOC(=O)c1cc(-c2ccccc2)sc1NC(=O)CNC(=O)c1cccc(C(=O)O)c1` [Compound 439] registered a Kd on Zα domain of ADAR1 p150 of at most 1 µM.

The values above are taken from patent US20260200890A1, “ADAR1 INHIBITORS AND METHODS OF USING THE SAME” (AVAMMUNE THERAPEUTICS INC., priority 2022, published 2026).
